Source: patent publication US9663486B2, “Selectively substituted quinoline compounds” (EISAI R&D MANAGEMENT CO., LTD., priority 2013, dated 2017)
“Also recorded” adds a separate entry of the source.

Experiments:
[1] = test system: auto-antibody titers (anti-dsDNA, anti-histone, anti-Sm/RNP, anti-RiboP); test: DBA/1 pristane lupus model, auto-antibody titers by ELISA; assay type: in vivo, mouse; settings: DBA/1 mice, once-a-day oral dosing
Protocol: (§1) FIG. 1A through FIG. 1D show results of treatment with ER-888840 (5-((3R,5S)-3-amino-5-methylpiperidin-1-yl)quinoline-8-carbonitrile) in the DBA/1 pristane model. Figure Legend: Female DBA/1 mice at 10 weeks of age were given an intraperitoneal injection of 0.5 ml pristane or PBS. At 18 weeks of age animals were bled for pre-dosing baseline auto-antibody titers. Once-a-day oral dosing with Vehicle (Veh; 0.5% methyl-cellulose) or 11 mg/kg, 33 mg/kg, or 100 mg/kg of ER-888840 was begun at 18 weeks of age, 8 weeks after pristane injection and continued for 12 weeks of treatment. At the end of the experiment plasma samples were taken and anti-dsDNA and anti-histone (FIG. 1A) and anti-Sm/RNP and anti-RiboP (FIG. 1B) titers were determined by ELISA. (FIG. 1C) The expression of IFN-regulated genes in whole blood was measured by a qPCR panel after 8 weeks of treatment. […] (FIG. 1D) The interferon scores of individual mice were calculated (see Pharmacology Materials and Methods section for details regarding IFN score calculation) and groups compared using the Mann-Whitney t test.
(§2) FIG. 2A through 2E show results of treatment with ER-888840 in the DBA/1 pristane model. […] At the end of the experiment plasma was taken and anti-dsDNA (FIG. 2A), anti-RiboP (FIG. 2B), anti-histone (FIG. 2C) and anti-Sm/RNP (FIG. 2D) titers were determined by ELISA. […]

[2] = test system: IFN-regulated genes; test: DBA/1 pristane lupus model, IFN-regulated gene expression in whole blood (qPCR, IFN score); assay type: in vivo, mouse; settings: Pristane-induced diseased animals, DBA/1 mice, once-a-day oral dosing
Protocol: as §1, §2

C[C@H]1C[C@@H](N)CN(c2ccc(C#N)c3ncccc23)C1 [ER-888840, 5-((3R,5S)-3-amino-5-methylpiperidin-1-yl)quinoline-8-carbonitrile]
effect on auto-antibody specificities [1]: suppressed multiple auto-antibody specificities; also recorded: limited the production of several autoantibody specificities
effect on interferon-regulated gene expression (interferon score) [2]: dose-dependently significantly reduced interferon-regulated gene expression; also recorded: suppressed the upregulation of interferon-driven genes
